Publication PMC6348771 (Redox Biology, 2018)

Target: T1, glutathione reductase (GR) (Saccharomyces cerevisiae, UniProt P41921)
T1 sequence (P41921 1-483): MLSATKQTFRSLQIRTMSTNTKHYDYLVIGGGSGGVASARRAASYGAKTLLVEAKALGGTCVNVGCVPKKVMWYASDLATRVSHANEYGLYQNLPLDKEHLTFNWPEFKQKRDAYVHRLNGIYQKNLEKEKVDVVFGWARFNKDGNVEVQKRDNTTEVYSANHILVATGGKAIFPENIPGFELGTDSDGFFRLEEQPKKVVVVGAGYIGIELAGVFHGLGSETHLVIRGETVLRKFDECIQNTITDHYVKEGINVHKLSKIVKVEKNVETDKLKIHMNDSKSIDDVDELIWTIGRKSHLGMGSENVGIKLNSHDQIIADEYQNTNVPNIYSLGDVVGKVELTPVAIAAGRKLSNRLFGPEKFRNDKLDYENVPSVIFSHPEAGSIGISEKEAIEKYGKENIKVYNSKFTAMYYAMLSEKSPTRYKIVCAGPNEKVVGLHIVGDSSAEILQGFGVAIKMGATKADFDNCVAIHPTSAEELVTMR
Test: enzyme activity assay versus GSH concentration
Assay type: biochemical

IC50: ~10 mM
SMILES: N[C@@H](CCC(=O)N[C@@H](CS)C(=O)NCC(=O)O)C(=O)O [GSH, Glutathione]
